Source: US5204361A, “Method for treating laminitis in equine livestock” (priority 1988, dated 1993)
Read-outs that look alike come from different tables or passages of the source.

Tests used:
[1] = system: caecal/large colon digesta; test: Experiment 2 Part 5: efficacy of tylosin relative to virginiamycin, digesta incubated with glucose; format: cell-based, horse; conditions: for L-lactate: digesta incubated with glucose, 37°, 20 hours, mean
Description: An in vitro fermentation experiment was conducted to determine the efficacy of tylosin relative to virginiamycin. Samples of strained caecal and large colon digesta (16 ml) were incubated with glucose solution (60 ug/ml) (4 ml) and varying concentrations of either tylosin or virginiamycin representing […], 2.0, 4.0 ug of tylosin or virginiamycin per ml. The 25 ml containers were incubated at 37° for 20 hours. There were three replicates per treatment.

[2] = system: caecal/large colon digesta; test: as above; format: cell-based, horse; conditions: antibiotic 1.00 μg/ml, 37°, 20 hours, mean
cattle = conditions: Nagaraja et al. (1981); cited from earlier work
horses = conditions: cited from earlier work
[3] = system: mixed caecal/large colon digesta; test: Experiment 2 Part 1: in vitro fermentation of digesta with cornstarch, avoparcin, virginiamycin, flavomycin 2-32 ug/ml; format: cell-based, horse; design: Lactate / Total VFA: unit not given here; conditions: for pH / Acet:Prop / Lactate / Total VFA / control of lactic acid build-up: cornstarch 15 mg/ml; for pH / Acet:Prop / Lactate / Total VFA: mean
Description: (§1) Digesta was taken from the caecum and large colon from recently slaughtered animals and was filtered through nylon gauze (approximately 60 micron apertures). The fluid was diluted 1:1 with a buffer solution described by Bales et al. (1976) and incubated with wheat "corn starch" (with or without antibiotics) at 37° for 16 to 20 hours. Aliquots of digesta diluted with buffer (50 ml) were added to 100 ml conical flasks. The flasks were flushed with carbon dioxide before being sealed with a tightly fitting rubber cap. A 21 gauge needle was inserted through the rubber seal in order to allow gas to escape during the fermentation. On removal from the incubator sub-samples were immediately taken to measure L-lactic acid concentration and pH. For each treatment or level of antibiotic three replicate incubation flasks were used.
A range of concentrations of cornstarch providing: 0, 5, 10, 15 and 20 mg/ml diluted digesta (i.e. from 0 to 1 g cornstarch/conical flask) were tested to determine the amount required to produce a pattern of fermentation with high levels of lactic acid. Flasks were also prepared with cornstarch mixed with antibiotic premixes to provide 15 mg cornstarch/ml incubation mixture and 0, 2, 4, 8, 16 and 32 ug of avoparcin, virginiamycin or flavomycin per ml incubation mixture. After approximately 16 hour incubation at 37° samples were taken to measure lactic acid, VFA and pH.

[4] = system: caecal and large colon contents; test: Experiment 2 Part 3: in vitro screening at 2 ug/ml in digesta of four horses; format: cell-based, horse; conditions: 2 ug antibiotic/ml, 15 mg cornstarch/ml, 20 hour incubation
Description: as §1
All four of the antibiotics, listed above, were incubated as previously described to provide 2 ug antibiotic and 15 mg cornstarch per ml incubation mixture. There was one flask per test and each antibiotic was incubated in digesta from both the caecum and the large colon taken from each of 4 animals. Samples of incubation fluid were taken following a 20 hour incubation and were analysed for L-lactate and pH.

[5] = system: horses dosed with 15 g wheat/kg liveweight; conditions: for D-lactic acid, caecum / D-lactic acid, large colon / L-lactic acid, large colon / Lameness (Obel grade): avoparcin 120 mg/kg wheat; for D-lactic acid, caecum / D-lactic acid, large colon / L-lactic acid, large colon: 24 hours after wheat; for Lameness (Obel grade): within 24 hours of wheat
Description: Four horses were dosed with 15 g wheat/kg liveweight. The wheat given to two of the animals contained 120 mg avoparcin/kg wheat, and the other two animals received the wheat without medication. Animals were examined prior to dosing and at intervals of eight hours after the dosing for a period of 24 hours. At these times temperature and heart rate were measured, and a sample of venous blood was taken for the measurement of pH, blood gases, bicarbonate, D-lactate and L-lactate. Animals were also examined for any signs of lameness according to the criteria of Obel (1948) as summarized by Garner et al (1977). After 24 hours all animals were slaughtered and samples of digesta were taken from the caecum and large colon for analysis of lactic acid, VFA and avoparcin concentration.

sheep = conditions: cited from earlier work
[6] = system: caecal/large colon digesta; test: Experiment 2 Part 2: in vitro fermentation with cornstarch, antibiotics at or below 2 ug/ml; format: cell-based, horse; conditions: cornstarch 0.75 g per flask, 16 hours, mean
Description: as §1
Incubation flasks were set up as described above with cornstarch (0.75 g) containing virginiamycin, flavomycin or zinc-bacitracin a levels to provide: 0, 0.25, 0.5, 1.0 and 2 ug antibiotic/ml incubation mixture. These flasks were incubated for 16 hours. Flasks were also set up with 0.75 g cornstarch and no antibiotic equipped with a tap and sampling tube in order to take samples from the incubation vessels at various times during the fermentation. Samples were taken at the start of the incubation and at 2, 4, 6, 8, 12 and 24 h. These were analysed for L-lactate concentration and pH.

[7] = antibiotic 2 μg/ml, approx 16 hour incubation at 37°
[8] = antibiotic 2 μg/ml, approx 16 hour incubation
[9] = antibiotic 4 μg/ml, approx 16 hour incubation
[10] = antibiotic 8 μg/ml, approx 16 hour incubation
[11] = antibiotic 16 μg/ml, approx 16 hour incubation
[12] = antibiotic 32 μg/ml, approx 16 hour incubation
[13] = Horse 1, mean of caecum and large colon
[14] = Horse 2, mean of caecum and large colon
[15] = Horse 3, mean of caecum and large colon
[16] = Horse 4, mean of caecum and large colon

`CC[C@H]1OC(=O)C[C@@H](O)[C@H](C)[C@@H](O[C@@H]2O[C@H](C)[C@@H](O[C@H]3C[C@@](C)(O)[C@@H](O)[C@H](C)O3)[C@H](N(C)C)[C@H]2O)[C@@H](CC=O)C[C@@H](C)C(=O)/C=C/C(C)=C/[C@@H]1CO[C@@H]1O[C@H](C)[C@@H](O)[C@@H](OC)[C@H]1OC` [Tylosin, tylosin] gave a L-lactate ([1]; antibiotic 0.50 μg/ml) of 122 mmol/L, a L-lactate ([1]; antibiotic 2.00 μg/ml) of 38.7 mmol/L and a L-lactate ([1]; antibiotic 4.00 μg/ml) of 11.7 mmol/L. For the same molecule, the “reduction in lactic acid levels compared with virginiamycin” value ([1]; at the concentrations used (0.5-4 ug/ml)) was “did not cause the same reduction”, the “concentration of lactic acid during the fermentation of soluble carbohydrate” value ([1]; higher levels of tylosin than virginiamycin required for similar reduction) was “can reduce the concentration of lactic acid” and the L-lactate [2] was 45.1 mmol/L.
In the case of `CC[C@@H](C(=O)[C@@H](C)[C@@H](O)[C@H](C)CCc1ccc(C)c(O)c1C(=O)O)[C@H]1O[C@](CC)([C@H]2CC[C@](O)(CC)[C@H](C)O2)C[C@@H]1C` [lasalocid], the “control of lactic acidosis” value (cattle) is given as “lactic acidosis could be controlled”.
In the case of `CC[C@@]1([C@@H]2O[C@@H]([C@H]3O[C@@](O)(CO)[C@H](C)C[C@@H]3C)C[C@@H]2C)CC[C@H]([C@]2(C)CC[C@]3(C[C@H](O)[C@@H](C)[C@@H]([C@@H](C)[C@@H](OC)[C@H](C)C(=O)O)O3)O2)O1` [monensin], the “control of lactic acidosis” value (cattle) is listed as “lactic acidosis could be controlled” and the “toxicity on the host” value (horses) is listed as “highly toxic”.
For avoparcin, the pH [3, 7] was 6.14, the “Acet:Prop” value [3, 8] was 2.9 and the Lactate [3, 8] was 8.9. The “Total VFA” value [3, 8] was 102.6, the “Acet:Prop” value [3, 9] was 2.8 and the Lactate [3, 9] was 12.0. The “Total VFA” value [3, 9] was 100.9, the pH [3, 9] was 6.17 and the “Acet:Prop” value [3, 10] was 3.3. For the same molecule, the Lactate [3, 10] was 11.0, the “Total VFA” value [3, 10] was 82.1 and the pH [3, 10] was 6.33. The “Acet:Prop” value [3, 11] was 3.5, the Lactate [3, 11] was 10.3 and the “Total VFA” value [3, 11] was 87.1. For the same molecule, the pH [3, 11] was 6.40, the “Acet:Prop” value [3, 12] was 3.6 and the Lactate [3, 12] was 15.1. For the same molecule, the “Total VFA” value [3, 12] was 89.8, the pH [3, 12] was 6.43 and the “control of lactic acid build-up” value ([3]; even at 32 µg/ml) was “only partially controlled”. The “control of lactic acid” value ([3]; even at the highest concentrations (approx 32 times the minimum effective dose of virginiamycin)) was “failed to completely control lactic acid”, the pH ([4]; Horse 1) was 5.12 and the L-lactate [4, 13] was 19.8 mmol/L. It also gave a pH ([4]; Horse 2) of 4.57, a L-lactate [4, 14] of 67.9 mmol/L and a pH ([4]; Horse 3) of 4.75. The L-lactate [4, 15] was 34.5 mmol/L, the pH ([4]; Horse 4) was 5.15 and the L-lactate [4, 16] was 20.0 mmol/L. The L-lactate ([4]; Mean of 4 horses) was 35.5 mmol/L, the pH ([4]; Mean of 4 horses) was 4.90 and the “Lactic acid concentrations, large colon digesta versus caecal contents” value ([5]; animals given avoparcin) was “appreciably lower in the large colon digesta”. The “D-lactic acid, caecum” value ([5]; horse 2) was 33 mmol/L, the “D-lactic acid, large colon” value ([5]; horse 2) was 2 mmol/L and the “L-lactic acid, large colon” value ([5]; horse 2) was 2 mmol/L. The “Lameness (Obel grade)” value ([5]; horse 2) was “Obel 2”, the “D-lactic acid, caecum” value ([5]; horse 4) was 34 mmol/L and the “D-lactic acid, large colon” value ([5]; horse 4) was 11 mmol/L. For the same molecule, the “L-lactic acid, large colon” value ([5]; horse 4) was 10 mmol/L, the “Lameness (Obel grade)” value ([5]; horse 4) was “Obel 2” and the “concentrations of the antibiotic, caecum versus large colon” value ([5]; in vivo) was “lower in the caecum than in the large colon”. For the same molecule, the “Lactic acid accumulation in the hind-gut and lameness” value ([5]; wheat slurry with and without avoparcin) was “developed irrespective of the presence of avoparcin” and the “control of lactic acid” value (sheep; sheep dosed with round wheat, Aitchison et al. (1986)) was “particularly effective”.
In the case of bacitracin zinc [Zn-bacitracin], the L-lactate ([6]; antibiotic 0.25 μg/ml) is reported as 20.6 mmol/L, the pH ([6]; antibiotic 0.25 μg/ml) is reported as 5.64 and the L-lactate ([6]; antibiotic 0.50 μg/ml) is reported as 17.8 mmol/L. The pH ([6]; antibiotic 0.50 μg/ml) was 5.86, the L-lactate ([6]; antibiotic 1.00 μg/ml) was 15.9 mmol/L and the pH ([6]; antibiotic 1.00 μg/ml) was 5.68. For the same molecule, the L-lactate ([6]; antibiotic 2.00 μg/ml) was 14.7 mmol/L, the pH ([6]; antibiotic 2.00 μg/ml) was 5.59 and the pH ([4]; Horse 1) was 4.91. For the same molecule, the L-lactate [4, 13] was 26.8 mmol/L, the pH ([4]; Horse 2) was 4.59 and the L-lactate [4, 14] was 62.5 mmol/L. It also gave a pH ([4]; Horse 3) of 4.76, a L-lactate [4, 15] of 35.1 mmol/L and a pH ([4]; Horse 4) of 5.11. It also gave a L-lactate [4, 16] of 22.2 mmol/L, a L-lactate ([4]; Mean of 4 horses) of 36.6 mmol/L and a pH ([4]; Mean of 4 horses) of 4.84.
With flavomycin (bambermycin) the pH [3, 7] was 6.57, the “Acet:Prop” value [3, 8] was 3.4 and the Lactate [3, 8] was 0.0. For the same molecule, the “Total VFA” value [3, 8] was 88.9, the “Acet:Prop” value [3, 9] was 4.6 and the Lactate [3, 9] was 0.0. For the same molecule, the “Total VFA” value [3, 9] was 93.7, the pH [3, 9] was 6.52 and the “Acet:Prop” value [3, 10] was 5.7. For the same molecule, the Lactate [3, 10] was 0.0, the “Total VFA” value [3, 10] was 90.0 and the pH [3, 10] was 6.48. The “Acet:Prop” value [3, 11] was 5.8, the Lactate [3, 11] was 0.0 and the “Total VFA” value [3, 11] was 85.6. For the same molecule, the pH [3, 11] was 6.47, the “Acet:Prop” value [3, 12] was 5.8 and the Lactate [3, 12] was 0.2. The “Total VFA” value [3, 12] was 93.7, the pH [3, 12] was 6.41 and the “control of lactic acid build-up” value ([3]; at concentrations as low as 2 g/ml) was “total control”. For the same molecule, the L-lactate ([6]; antibiotic 0.25 μg/ml) was 12.4 mmol/L, the pH ([6]; antibiotic 0.25 μg/ml) was 5.69 and the L-lactate ([6]; antibiotic 0.50 μg/ml) was 7.3 mmol/L. For the same molecule, the pH ([6]; antibiotic 0.50 μg/ml) was 5.67, the L-lactate ([6]; antibiotic 1.00 μg/ml) was 9.9 mmol/L and the pH ([6]; antibiotic 1.00 μg/ml) was 5.67. For the same molecule, the L-lactate ([6]; antibiotic 2.00 μg/ml) was 11.7 mmol/L, the pH ([6]; antibiotic 2.00 μg/ml) was 5.56 and the pH ([4]; Horse 1) was 4.88. It also gave a L-lactate [4, 13] of 31.8 mmol/L, a pH ([4]; Horse 2) of 4.54 and a L-lactate [4, 14] of 55.6 mmol/L. It also gave a pH ([4]; Horse 3) of 4.98, a L-lactate [4, 15] of 17.9 mmol/L and a pH ([4]; Horse 4) of 5.07. It also gave a L-lactate [4, 16] of 23.7 mmol/L, a L-lactate ([4]; Mean of 4 horses) of 32.2 mmol/L and a pH ([4]; Mean of 4 horses) of 4.86.
In the case of thiopeptin, the “control of wheat-induced acidosis” value (sheep; sheep, Muir et al (1980)) is given as “control of wheat-induced acidosis”.
